Data set [1] can be described thus: Molar enthalpy of transition or fusion. Conditions: DSC.
The conditions of data set [2]: DTA.
Data set [3] in a line: molar enthalpy of vaporization or sublimation. To be noted: 298.15 K; Crystal 1; DSC.

“And” between values parts separate entries of the source, which are not always exact repeats. Equal entries are not always repeated. Numbers after ± are expanded uncertainties.

`O=C(O)CCCC(=O)O` [1,5-pentanedioic acid]: the “Molar enthalpy of transition or fusion” value in data set [1] (Crystal 1) came to 4.49 ± 0.143 kcal/mol; in data set [1] (Crystal 2), 0.55 ± 0.143 kcal/mol. Moreover, the Triple point temperature came out at 363.9 ± 13 K in data set [2] (Crystal 1) and 340.5 ± 3.6 K in data set [2] (Crystal 2). The molar enthalpy in data set [3] amounted to 28.5 ± 1.53 kcal/mol.

As to `O=C(O)CCCCC(=O)O` [1,6-hexanedioic acid], in data set [1] (Crystal 1), the “Molar enthalpy of transition or fusion” value stood at 8.05 ± 0.239 kcal/mol. In addition, the Triple point temperature in data set [2] (Crystal 1) is 419 ± 2.8 K.

Turning to `O=C(O)CCCCCC(=O)O` [1,7-heptanedioic acid], the “Molar enthalpy of transition or fusion” value came to 5.66 ± 0.598 kcal/mol in data set [1] (Crystal 1) and 0.359 ± 0.143 kcal/mol in data set [1] (Crystal 3). The Triple point temperature in data set [2] (Crystal 1) is recorded as 368.2 ± 3.2 K; in data set [2] (Crystal 2), 366.3 ± 2.8 K; in data set [2] (Crystal 3), 337.7 ± 3.2 K. In addition, in data set [3], the molar enthalpy worked out at 31.8 ± 1.7 kcal/mol.

As to `O=C(O)CCCCCCC(=O)O` [1,8-octanedioic acid], the “Molar enthalpy of transition or fusion” value in data set [1] (Crystal 1) worked out at 7.34 ± 0.239 kcal/mol; in data set [1] (Crystal 2) it was 2.17 ± 0.0717 kcal/mol; in data set [1] (Crystal 3) it was 0.478 ± 0.382 kcal/mol. Further, the Triple point temperature in data set [2] (Crystal 1) came out at 413.2 ± 0.5 K; in data set [2] (Crystal 2), 403.6 ± 0.5 K; in data set [2] (Crystal 3), 355.9 ± 1.6 K. Also, the molar enthalpy in data set [3] turned out to be 36.1 ± 1.94 kcal/mol.

As for `O=C(O)CCCCCCCC(=O)O` [1,9-nonanedioic acid], the “Molar enthalpy of transition or fusion” value in data set [1] (Crystal 1) came to 7.1 ± 0.454 kcal/mol; in data set [1] (Crystal 2) it was 0.167 ± 0.143 kcal/mol; in data set [1] (Crystal 3), 0.00239 kcal/mol. Moreover, the Triple point temperature amounted to 372.4 ± 2.4 K in data set [2] (Crystal 1), 339.8 ± 8.4 K in data set [2] (Crystal 2) and 330.6 ± 0.5 K in data set [2] (Crystal 3). In addition, in data set [3], the molar enthalpy is 34.5 ± 1.84 kcal/mol.

`O=C(O)CCCCCCCCC(=O)O` [1,10-decanedioic acid]: the “Molar enthalpy of transition or fusion” value in data set [1] (Crystal 1) was determined as 11.1 ± 2.39 kcal/mol; in data set [1] (Crystal 2) it was 0.0956 ± 0.0478 kcal/mol. Moreover, the Triple point temperature in data set [2] (Crystal 1) is 403.9 ± 0.9 K; in data set [2] (Crystal 2) it was 370.3 ± 0.5 K.

`O=C(O)CCCCCCCCCC(=O)O` [1,11-undecanedioic acid]: the results for the “Molar enthalpy of transition or fusion” value in data set [1] (Crystal 1) and in data set [1] (Crystal 2) were 9.85 ± 0.789 kcal/mol and 0.382 ± 0.239 kcal/mol, respectively. The Triple point temperature in data set [2] (Crystal 1) is on record as 380.1 ± 1.6 K; in data set [2] (Crystal 2), 355.3 ± 0.9 K. Further, in data set [3], the molar enthalpy was 39.1 kcal/mol and 39.3 kcal/mol.

Consider `O=C(O)CCCCCCCCCCCCC(=O)O` [1,12-dodecanedicarboxylic acid], for which the “Molar enthalpy of transition or fusion” value in data set [1] (Crystal 1) was 13.5 ± 0.813 kcal/mol. Besides, the Triple point temperature in data set [2] (Crystal 1) was 397.3 ± 0.5 K. Also, the molar enthalpy in data set [3] turned out to be 41.8 ± 2.22 kcal/mol.

Turning to `O=C(O)CCCCCCCCCCC(=O)O` [1,12-dodecanedioic acid], the “Molar enthalpy of transition or fusion” value in data set [1] (Crystal 1) is 11.9 ± 0.574 kcal/mol; in data set [1] (Crystal 2), -0.0239 ± 0.0956 kcal/mol; in data set [1] (Crystal 3), 0.0143 ± 0.0359 kcal/mol. Further, the Triple point temperature in data set [2] (Crystal 1) was 400.3 ± 1.3 K; in data set [2] (Crystal 2), 387 ± 1 K; in data set [2] (Crystal 3), 359.5 ± 9.6 K. For the same molecule, in data set [3], the molar enthalpy was determined as 41 ± 2.17 kcal/mol.

Turning to `O=C(O)CCC(=O)O` [butanedioic acid], the “Molar enthalpy of transition or fusion” value in data set [1] (Crystal 1) worked out at 8.13 ± 0.239 kcal/mol. Besides, the Triple point temperature in data set [2] (Crystal 1) worked out at 455.2 ± 2.4 K.

Regarding `O=C(O)CCCCCCCCCCCCCCC(=O)O` [hexadecanedioic acid], in data set [1] (Crystal 1), the “Molar enthalpy of transition or fusion” value was found to be 12.5 ± 0.263 kcal/mol. Further, the Triple point temperature in data set [2] (Crystal 1) was 395.4 ± 1.3 K.

Take `O=C(O)CCCCCCCCCCCC(=O)O` [tridecanedioic acid]: the “Molar enthalpy of transition or fusion” value in data set [1] (Crystal 1) came to 11.8 ± 0.239 kcal/mol. For the same molecule, the Triple point temperature in data set [2] (Crystal 1) was found to be 386.3 ± 2.8 K.
